Positions count from the first letter of the chain named. Where two headings read alike, the source gives them in different places.

One may read the IC50 as the point on the concentration scale where inhibition reaches its midpoint.

Common to all, as to assay: [3H]glycine transport by GlyT2 mutant in COS7 cells
What all share (assay type): cell-based

One assay has as its target T1, GlyT2 G214L mutant (Rattus norvegicus, UniProt P58295, G214L).
T1 construct: expressed in transfected cells; host or cells: COS7
T1 sequence (P58295 1-799 G214L): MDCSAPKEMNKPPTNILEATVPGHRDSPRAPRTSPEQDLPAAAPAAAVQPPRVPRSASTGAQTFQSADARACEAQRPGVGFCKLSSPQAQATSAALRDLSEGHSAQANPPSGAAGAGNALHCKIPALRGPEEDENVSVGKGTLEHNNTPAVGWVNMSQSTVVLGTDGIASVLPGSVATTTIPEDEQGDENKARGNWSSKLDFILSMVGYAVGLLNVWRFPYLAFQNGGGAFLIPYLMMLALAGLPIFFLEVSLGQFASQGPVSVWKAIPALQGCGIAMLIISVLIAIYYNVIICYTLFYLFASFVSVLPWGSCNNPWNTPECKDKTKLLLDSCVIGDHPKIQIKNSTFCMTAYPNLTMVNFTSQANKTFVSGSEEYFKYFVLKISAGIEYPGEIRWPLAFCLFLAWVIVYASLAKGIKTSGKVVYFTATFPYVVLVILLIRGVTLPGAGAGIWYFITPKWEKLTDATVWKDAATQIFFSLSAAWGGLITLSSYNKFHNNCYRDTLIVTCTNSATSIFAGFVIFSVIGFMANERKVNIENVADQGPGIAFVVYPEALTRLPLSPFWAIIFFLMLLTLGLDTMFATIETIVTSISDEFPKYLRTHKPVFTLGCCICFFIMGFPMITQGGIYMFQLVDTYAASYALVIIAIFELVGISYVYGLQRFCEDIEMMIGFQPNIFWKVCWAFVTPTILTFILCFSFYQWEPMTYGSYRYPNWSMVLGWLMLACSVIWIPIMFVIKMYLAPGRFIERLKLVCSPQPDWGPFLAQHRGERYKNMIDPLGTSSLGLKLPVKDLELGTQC
An excerpt: (§1) To validate the predicted interactions between the inhibitors and GlyT2, we used systematic site-directed mutagenesis to construct substitution mutants of the potential residues involved in ligand binding. […] The GlyT2 residues predicted to interact with the inhibitors through its side chain were replaced by amino acids expected to force the loss of the interaction. In the cases where the interaction occurred through the backbone, the inserted amino acid sought to alter the disposition of the substituted residue to lose the coordination.
(§2) Substitution mutants were generated with the QuikChange II Site-Directed Mutagenesis kit (Agilent Technologies, Santa Clara, CA, USA), using rGlyT2 or rGlyT1 subcloned in pCDNA3.[47] The complete coding region of all of the constructs was sequenced to verify that only the desired mutation had been introduced. […] COS7 cells were grown and transfected using Turbofect Transfection Reagent (Thermo Fisher Scientific, Waltham, MA, USA), following the manufacturer’s protocol (2 μL reagent/μg of DNA). Cells were incubated for 48 h at 37 °C until used.
(§3) At the end of the desired time (usually 10 min), reactions were washed and terminated by aspiration. […] A nonlinear curve fitting method was used to obtain IC50 values using Graphpad Prism software, version 6.0, Graphpad, San Diego, CA, USA.

Another assay deals with T2, GlyT2 T580C mutant (Rattus norvegicus, UniProt P58295, T580C).
T2 construct: expressed in transfected cells; host or cells: COS7
T2 sequence (P58295 1-799 T580C): T1 sequence (P58295 1-799 G214L) with L214G, T580C
Excerpt: as §1, §2, §3

The next assay concerns the target T3, GlyT2 W217F mutant (Rattus norvegicus, UniProt P58295, W217F).
T3 construct: expressed in transfected cells; host or cells: COS7
T3 sequence (P58295 1-799 W217F): T1 sequence (P58295 1-799 G214L) with L214G, W217F
Excerpt: as §1, §2, §3

With `N[C@@H](COC(c1cccc(F)c1)c1ccccc1OCc1ccccc1)C(=O)O` (stereo partly shown) [ALX1393], the figures for the IC50 at GlyT2 G214L mutant (read-out: IC50 (Table S1)), at GlyT2 T580C mutant (read-out: IC50 (Table S1)) and on GlyT2 W217F mutant (read-out: IC50 (Table S1)) were 38 ± 3 nM, 84 ± 9 nM and 23 ± 5 nM, respectively.

Take `COc1cc(C(=O)NCC2(N(C)C)CCCC2)cc(OC)c1OCc1ccccc1` [ORG25543, N-[[1-(dimethylamino)cyclopentyl]methyl]-3,5-dimethoxy-4-(phenylmethoxy)benzamide]: the IC50 against GlyT2 G214L mutant stood at 17 ± 10 nM; at GlyT2 T580C mutant it was 96 ± 10 nM; against GlyT2 W217F mutant, 93 ± 7 nM. Moreover, the “effect of mutation on inhibition of glycine transport” value on GlyT2 W217F mutant (W217F, 1 μM inhibitor, 20 μM glycine) is given as “selectively reduced ORG25543 inhibition”.

Values taken from paper PMC8691691 (ACS Chemical Neuroscience, 2021).
